From US9408852B2, “Method of lowering serum uric acid levels with (S)-tofisopam” (PHARMOS CORPORATION, priority 2011, dated 2016)
Values joined by “and” are separate entries in the source; they are usually repeats but may differ in a detail not shown here. Identical values can stand only once.

Assays:
Assay type in all cases: in vivo, human
[1] = system: urinary uric acid excretion; experiment: 24 h urinary uric acid excretion in patients with hyperuricemia and gout (Example 9); conditions: for Percent change in Uu (mg/24 h), amount of uric acid excreted into the urine over 24 hours / Percent change in Uu (mg/dL), concentration of uric acid in 24 hour urine: 50 mg qd Day 1 and 7, tid Days 2 to 6
Description: (§1) The study lasted 7 days, and patients were treated with placebo or 50 mg of enantiomerically-pure (S)-tofisopam once a day (qd) on Day 1 and Day 7 of the study, and with placebo or 50 mg of enantiomerically-pure (S)-tofisopam three times a day (tid) for Days 2 to 6 of the study. […] In Table 8, days indicated with a minus sign (e.g. D-1) indicate the time point corresponding to that number of days before treatment was initiated. For example, D-14 is the time point fourteen days before treatment was initiated.

serum uric acid [2] = experiment: Serum uric acid in healthy men and postmenopausal women, single-dose and multiple-dose phases (Example 3)
Description: (§2) In another study in healthy men and postmenopausal women, the trial period included a single-dose phase (Day 1) and a multiple-dose phase (Days 2-6). […] With multiple-dose oral administration (twice a day (BID) or three times a day (TID) on days 2-6), this decrease was more pronounced.

serum creatinine = experiment: Serum creatinine in male and female patients with hyperuricemia and gout, 7 days (Example 8)
Description: as §1, with “7,” for “8,”

[3] = system: fractional excretion of uric acid; experiment: Post hoc analysis of clinical trial specimens: fractional excretion of uric acid and renal function (Example 3); conditions: 50 mg TID
Description: as §2

serum uric acid [4] = experiment: Serum uric acid after single oral doses in male healthy volunteers (Example 2); conditions: single oral dose 50 mg, male healthy volunteers, n = 6
Description: Male healthy volunteers received 50-400 mg enantiomerically-pure (S)-tofisopam by oral administration. Mean serum uric acid values fell by 23% to 30% within 4 hours after receiving single doses (Table 1).

[5] = individual patient (P#), [D 1 to D 2] from [D −2 to D −1]
[6] = individual patient (P#), [D 6 to D 7] from [D 1 to D 2]
[7] = mean (M) of patients, [D 1 to D 2] from [D −2 to D −1]
[8] = mean (M) of patients, [D 6 to D 7] from [D 1 to D 2]
[9] = 50 mg qd Day 1 and Day 7, tid Days 2 to 6, Day 1 6 h (Day 1 0 h = 0.0), hyperuricemia and gout
[10] = 50 mg qd Day 1 and Day 7, tid Days 2 to 6, Day 1 to Day 2: Day 1 0 h + Day 2, hyperuricemia and gout
[11] = 50 mg qd Day 1 and Day 7, tid Days 2 to 6, Day 2 (Day 1 0 h = 0.0), hyperuricemia and gout
[12] = 50 mg qd Day 1 and Day 7, tid Days 2 to 6, Day 3 (Day 1 0 h = 0.0), hyperuricemia and gout
[13] = 50 mg qd Day 1 and Day 7, tid Days 2 to 6, Day 4 (Day 1 0 h = 0.0), hyperuricemia and gout
[14] = 50 mg qd Day 1 and Day 7, tid Days 2 to 6, Day 5 (Day 1 0 h = 0.0), hyperuricemia and gout
[15] = 50 mg qd Day 1 and Day 7, tid Days 2 to 6, Day 6 (Day 1 0 h = 0.0), hyperuricemia and gout
[16] = 50 mg qd Day 1 and Day 7, tid Days 2 to 6, Day 6 to Day 7: Day 6 + Day 7, hyperuricemia and gout
[17] = 50 mg qd Day 1 and Day 7, tid Days 2 to 6, Day 7 (Day 1 0 h = 0.0), hyperuricemia and gout
[18] = 50 mg qd Day 1 and Day 7, tid Days 2 to 6, Day 8 (after treatment stopped), hyperuricemia and gout
[19] = 50 mg qd Day 1 and Day 7, tid Days 2 to 6, Day 15 (after treatment stopped), hyperuricemia and gout

CC[C@@H]1C(C)=NN=C(c2ccc(OC)c(OC)c2)c2cc(OC)c(OC)cc21 [(S)-tofisopam]
Uric acid excretion levels in the urine ([1]; after initiation of treatment, 50 mg qd Day 1 and Day 7, tid Days 2 to 6, hyperuricemia and gout): increased | Percent change in Uu (mg/24 h), amount of uric acid excreted into the urine over 24 hours [1, 5]: 14.4% and 6.5% and −29.9% and 12.0% and −55.4% and 85.4% and 25.1% and 99.2% and 43.4% and −30.9% and −7.1% and 27.8% | Percent change in Uu (mg/dL), concentration of uric acid in 24 hour urine [1, 5]: 32.7% and −13.4% and 4.0% and 15.5% and −77.6% and 91.7% and 106.9% and 71.3% and 13.1% and −24.6% and −32.7% and 54.8% | Percent change in Uu (mg/24 h), amount of uric acid excreted into the urine over 24 hours [1, 6]: 4.6% and 21.3% and 43.8% and 18.3% and 1.0% and −7.0% and −11.6% and −18.9% and 7.9% and −13.3% and −22.8% | Percent change in Uu (mg/dL), concentration of uric acid in 24 hour urine [1, 6]: −15.6% and 1.7% and −17.5% and −15.9% and −20.8% and −40.4% and −48.3% and −49.3% and −9.5% and −14.3% and −39.5% | Percent change in Uu (mg/24 h), amount of uric acid excreted into the urine over 24 hours [1, 7]: 15.9% | Percent change in Uu (mg/dL), concentration of uric acid in 24 hour urine [1, 7]: 20.1% | Percent change in Uu (mg/24 h), amount of uric acid excreted into the urine over 24 hours [1, 8]: 2.1% | Percent change in Uu (mg/dL), concentration of uric acid in 24 hour urine [1, 8]: −24.5% | Change from Baseline serum uric acid (serum uric acid [2]; 50 mg TID (single dose Day 1), Postmenopausal women, Day 2 AM): −27% | Change from Baseline serum uric acid (serum uric acid [2]; 50 mg TID (single dose Day 1), Postmenopausal women, Day 4 AM): −58% | Change from Baseline serum uric acid (serum uric acid [2]; 50 mg TID (single dose Day 1), Postmenopausal women, Day 7 AM): −65% | Change from Baseline serum uric acid (serum uric acid [2]; 50 mg TID (single dose Day 1), Young men, Day 2 AM): −19% | Change from Baseline serum uric acid (serum uric acid [2]; 50 mg TID (single dose Day 1), Young men, Day 4 AM): −63% | Change from Baseline serum uric acid (serum uric acid [2]; 50 mg TID (single dose Day 1), Young men, Day 7 AM): −59% | Change from Baseline serum uric acid (serum uric acid [2]; 150 mg BID (single dose Day 1), Postmenopausal women, Day 2 AM): −48% | Change from Baseline serum uric acid (serum uric acid [2]; 150 mg BID (single dose Day 1), Postmenopausal women, Day 4 AM): −76% | Change from Baseline serum uric acid (serum uric acid [2]; 150 mg BID (single dose Day 1), Postmenopausal women, Day 7 AM): −71% | Change from Baseline serum uric acid (serum uric acid [2]; 150 mg BID (single dose Day 1), Young men, Day 2 AM): −31% | Change from Baseline serum uric acid (serum uric acid [2]; 150 mg BID (single dose Day 1), Young men, Day 4 AM): −72% | Change from Baseline serum uric acid (serum uric acid [2]; 150 mg BID (single dose Day 1), Young men, Day 7 AM): −72% | Uric acid levels after a single oral dose (serum uric acid [2]; 24 hours after single dose of 50 mg or 150 mg (Day 1), men and women): Decreased | Reductions from baseline in uric acid (serum uric acid [2]; by the morning of Day 4, male and female subjects, 50 mg TID or 150 mg BID): > 50% | Percent change in serum creatinine, individual patients (P# 1-13) (serum creatinine; [9]): 10.1% and 0.9% and 2.9% and 0.0% (2×) and 1.8% and 5.7% and 4.8% and 10.3% | Percent change in serum creatinine, mean (M) of 13 patients (serum creatinine; [9]): 2.5% | Percent change in serum creatinine, individual patients (P# 1-13) (serum creatinine; [10]): 4.4% and 0.9% and 0.5% (2×) and −1.0% and 2.3% and 0.8% and −1.3% and 6.7% | Percent change in serum creatinine, mean (M) of 13 patients (serum creatinine; [10]): 1.1% | Percent change in serum creatinine, individual patients (P# 1-13) (serum creatinine; [11]): 8.9% and 1.9% and 1.0% and −2.0% and 4.5% and 0.9% and 1.6% and −2.6% and 13.3% | Percent change in serum creatinine, mean (M) of 13 patients (serum creatinine; [11]): 2.1% | Percent change in serum creatinine, individual patients (P# 1-13) (serum creatinine; [12]): 7.6% and 3.7% and 13.6% and 2.0% and 16.2% and 10.4% and 4.8% and 17.9% and 24.0% and 14.9% | Percent change in serum creatinine, mean (M) of 13 patients (serum creatinine; [12]): 10.1% | Percent change in serum creatinine, individual patients (P# 1-13) (serum creatinine; [13]): 3.8% and −5.6% and 4.9% and −2.0% and 21.6% and −2.8% and 3.2% and 14.1% and 18.7% | Percent change in serum creatinine, mean (M) of 13 patients (serum creatinine; [13]): 6.1% | Percent change in serum creatinine, individual patients (P# 1-13) (serum creatinine; [14]): −5.1% and −3.7% and 8.7% and 9.8% and 23.4% and 0.9% and 14.3% and 7.7% and 24.0% | Percent change in serum creatinine, mean (M) of 13 patients (serum creatinine; [14]): 7.2% | Percent change in serum creatinine, individual patients (P# 1-13) (serum creatinine; [15]): 17.7% and 7.4% and 2.9% and 4.9% and 9.9% and 0.0% and 6.3% and 7.7% and 18.7% | Percent change in serum creatinine, mean (M) of 13 patients (serum creatinine; [15]): 8.0% | Percent change in serum creatinine, individual patients (P# 1-13) (serum creatinine; [16]): 15.2% and 2.3% and 0.5% and 1.0% and 10.4% and 5.7% and 7.1% and 5.1% and 12.0% | Percent change in serum creatinine, mean (M) of 13 patients (serum creatinine; [16]): 5.8% | Percent change in serum creatinine, individual patients (P# 1-13) (serum creatinine; [17]): 12.7% and −2.8% and −1.9% and −2.9% and 10.8% and 11.3% and 7.9% and 2.6% and 5.3% | Percent change in serum creatinine, mean (M) of 13 patients (serum creatinine; [17]): 3.7% | Percent change in serum creatinine, individual patients (P# 1-13) (serum creatinine; [18]): 10.1% and −7.4% and −8.7% and −6.9% and 0.9% and −2.8% and 12.7% and 12.8% and 24.0% | Percent change in serum creatinine, mean (M) of 13 patients (serum creatinine; [18]): 3.8% | Percent change in serum creatinine, individual patients (P# 1-13) (serum creatinine; [19]): 27.8% and 9.3% and 19.4% and 4.9% and 17.1% and 23.6% and 25.4% and −2.6% and 46.7% | Percent change in serum creatinine, mean (M) of 13 patients (serum creatinine; [19]): 13.6% | Effect on serum creatinine levels (serum creatinine; 50 mg qd Day 1 and Day 7, tid Days 2 to 6, male and female patients with hyperuricemia and gout): does not modify | Serum creatinine levels once treatment was stopped after 7 days (serum creatinine; after 7 days of 50 mg treatment, hyperuricemia and gout): did not substantially change | Effect on other common parameters of renal function [3]: no measurable effect | Fractional excretion of uric acid [3]: increases | Renal injury [3]: no sign of renal injury | Mean CFB (change from baseline) in uric acid levels (serum uric acid [4]; 4 hours after dose): −23% | Mean CFB (change from baseline) in uric acid levels (serum uric acid [4]; 24 hours after dose): −25%
